# Measurements: ChEMBL document CHEMBL3862010, “N-Arylsulfonyl-α-amino carboxamides are potent and selective inhibitors of the chemokine receptor CCR10 that show efficacy in the murine DNFB model of contact hypersensitivity” (Bioorg Med Chem Lett, 2016)
# Key:
# [1] = biological target: T1, C-C chemokine receptor type 10 (Homo sapiens, UniProt P46092); test: Antagonist activity at human CCR10 expressed in CHOK1 cells coexpressing aequorin/Galphaq assessed as inhibition of human CCL27-dependent calcium flux in presence of coelenterazine H by chemiluminescence assay; assay type: functional, cell-based, CHO-K1
# T1 sequence (P46092 whole entry): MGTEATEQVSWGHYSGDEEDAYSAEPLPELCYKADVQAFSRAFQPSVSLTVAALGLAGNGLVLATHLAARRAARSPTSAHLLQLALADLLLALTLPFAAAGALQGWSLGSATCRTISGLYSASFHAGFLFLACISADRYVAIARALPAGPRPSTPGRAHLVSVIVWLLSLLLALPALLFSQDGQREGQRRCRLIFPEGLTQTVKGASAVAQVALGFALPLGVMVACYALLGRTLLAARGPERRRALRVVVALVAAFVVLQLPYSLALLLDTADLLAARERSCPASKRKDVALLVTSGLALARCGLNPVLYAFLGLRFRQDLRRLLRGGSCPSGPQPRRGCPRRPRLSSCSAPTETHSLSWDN
# [2] = biological target: T2, C-C chemokine receptor type 10 (Mus musculus, UniProt Q9JL21); test: Antagonist activity at mouse CCR10 expressed in CHOK1 cells coexpressing aequorin/Galphaq assessed as inhibition of CCL27-dependent calcium flux in presence of coelenterazine H by chemiluminescence assay; assay type: functional, cell-based, CHO-K1
# T2 sequence (Q9JL21 whole entry): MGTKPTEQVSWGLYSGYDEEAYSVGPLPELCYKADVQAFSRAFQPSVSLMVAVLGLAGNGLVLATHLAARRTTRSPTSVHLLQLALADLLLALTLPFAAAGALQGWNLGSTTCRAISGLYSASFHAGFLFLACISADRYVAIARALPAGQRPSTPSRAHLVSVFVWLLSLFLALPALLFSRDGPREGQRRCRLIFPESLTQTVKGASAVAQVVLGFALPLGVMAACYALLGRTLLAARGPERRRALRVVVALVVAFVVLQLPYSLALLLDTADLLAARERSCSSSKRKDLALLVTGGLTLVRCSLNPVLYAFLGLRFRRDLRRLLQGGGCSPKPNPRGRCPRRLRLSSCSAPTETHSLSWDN
# [3] = biological target: T1, C-C chemokine receptor type 10; test: Antagonist activity at human CCR10 expressed in CHOK1 cells coexpressing aequorin/Galphaq assessed as inhibition of CCL27-dependent calcium flux in presence of coelenterazine H by FLIPR assay; assay type: functional, cell-based, CHO-K1
# [4] = Protein binding in Balb/C mouse plasma at 100 mg/kg, ip bid; assay type: ADME, organism-based; conditions: in vivo
# [5] = Plasma concentration in Balb/C mouse at 100 mg/kg, ip bid measured after 1 hr; assay type: ADME, organism-based; conditions: in vivo
# [6] = Plasma concentration in Balb/C mouse at 30 mg/kg, ip bid measured after 1 hr; assay type: ADME, organism-based; conditions: in vivo, 1 h
# [7] = biological target: T1, C-C chemokine receptor type 10; test: Antagonist activity at human CCR10 expressed in CHOK1 cells coexpressing aequorin/Galphaq assessed as inhibition of human CCL28-dependent calcium flux by FLIPR assay; assay type: functional, cell-based, CHO-K1
# [8] = biological target: T1, C-C chemokine receptor type 10; test: Antagonist activity at human CCR10 expressed in CHOK1 cells coexpressing aequorin/Galphaq assessed as inhibition of human CCL28-dependent calcium flux by chemiluminescence assay; assay type: functional, cell-based, CHO-K1
Structure (SMILES),IC50 ([1]; read-out: pIC50 (converted)) [nM],further results
N#Cc1cccn1CCC(NS(=O)(=O)c1cccc2[nH]ccc12)C(=O)N1CCC(O)CC1 (configuration not stated),126,–
CC1CCCCN1C(=O)C(CCn1cccc1C#N)NS(=O)(=O)c1cccc2[nH]ccc12 (configuration not stated),20,–
CC1CCN(C(=O)C(CCn2cccc2C#N)NS(=O)(=O)c2cccc3cc[nH]c23)CC1 (configuration not stated),251,IC50 [2]: 7940 nM
N#Cc1cccn1CCC(NS(=O)(=O)c1cccc2[nH]ccc12)C(=O)N1CCCCCC1 (configuration not stated),25.1,–
CC1CCN(C(=O)C(CCn2cccc2C#N)NS(=O)(=O)c2cccc3c2ccn3C)CC1 (configuration not stated),126,IC50 [2]: 6310 nM
CC1CCN(C(=O)C(CCn2ccnc2)NS(=O)(=O)c2cc(Cl)c(N)c(Cl)c2)CC1 (configuration not stated),–,IC50 [3]: > 20000 nM
CC1CCN(C(=O)C(CCn2cncn2)NS(=O)(=O)c2cc(Cl)c(N)c(Cl)c2)CC1 (configuration not stated),> 20000,–
CN(C)C(=O)C(CCn1cccc1C#N)NS(=O)(=O)c1cc(Cl)c(N)c(Cl)c1 (configuration not stated),> 10000,–
CC1CCN(C(=O)C(CCn2cccc2C#N)NS(=O)(=O)c2cccc3[nH]ccc23)CC1 (stereo in doubt; form 2),3160,IC50 [2]: 15800 nM; PPB [4]: 99%; concentration [5]: 18 µM; concentration [6]: 3.2 µM
N#Cc1cccn1CCC(NS(=O)(=O)c1cccc2[nH]ccc12)C(=O)N1CCCCC1 (configuration not stated),10,–
Cc1ccc(S(=O)(=O)NC(CCn2cccc2C#N)C(=O)N2CCC(C)CC2)c(C)c1N (configuration not stated),100,–
CC1CCN(C(=O)C(CCn2cccc2C#N)NS(=O)(=O)c2ccc3[nH]ccc3c2)CC1 (configuration not stated),200,–
N#Cc1cccn1CCC(NS(=O)(=O)c1cccc2[nH]ccc12)C(=O)N1CCC(C(F)(F)F)CC1 (configuration not stated),10,–
CC1CCCCN1C(=O)C(CCn1cccc1C#N)NS(=O)(=O)c1cc(Cl)c(N)c(Cl)c1 (configuration not stated),794,–
CC1CCN(C(=O)C(CCn2cccc2C#N)NS(=O)(=O)c2c(N)cc(Cl)cc2Cl)CC1 (configuration not stated),39.8,–
CC1CCN(C(=O)C(CCn2ccnc2Cl)NS(=O)(=O)c2cc(Cl)c(N)c(Cl)c2)CC1 (configuration not stated),501,IC50 [2]: > 20000 nM
CC1CCN(C(=O)C(CCn2cccc2C#N)NS(=O)(=O)c2cc(Cl)c(N)cc2Cl)CC1 (configuration not stated),63.1,–
CN(C)C(=O)C(CCn1cccc1C#N)NS(=O)(=O)c1cccc2[nH]ccc12 (configuration not stated),3980,–
CC1CCN(C(=O)C(CCn2ccnc2C#N)NS(=O)(=O)c2cc(Cl)c(N)c(Cl)c2)CC1 (configuration not stated),501,–
N#Cc1cccn1CCC(NS(=O)(=O)c1cc(Cl)c(N)c(Cl)c1)C(=O)N1CCCC1 (configuration not stated),> 10000,–
CC1CCN(C(=O)C(CCn2cccn2)NS(=O)(=O)c2cc(Cl)c(N)c(Cl)c2)CC1 (configuration not stated),1580,–

Structure (SMILES),IC50 ([1]; read-out: pIC50 (converted)) [nM],further results
CC1CCN(C(=O)[C@H](CCn2cccc2C#N)NS(=O)(=O)c2cc(Cl)c(N)c(Cl)c2)CC1,15800,–
CC1CCN(C(=O)C(CCn2cccc2C#N)NS(=O)(=O)c2cccc3ccccc23)CC1 (configuration not stated),50.1,–
CC1CCCN(C(=O)C(CCn2cccc2C#N)NS(=O)(=O)c2cccc3[nH]ccc23)C1 (configuration not stated),63.1,–
CC1CCN(C(=O)[C@H](CCc2ccccc2)NS(=O)(=O)c2cc(Cl)c(N)c(Cl)c2)CC1,> 10000,–
CC1CCN(C(=O)C(CCn2nccc2Cl)NS(=O)(=O)c2cc(Cl)c(N)c(Cl)c2)CC1 (configuration not stated),251,–
CC1CCN(C(=O)C(CCn2nccn2)NS(=O)(=O)c2cc(Cl)c(N)c(Cl)c2)CC1 (configuration not stated),3160,–
CC1CCN(C(=O)C(CCn2ccnc2[N+](=O)[O-])NS(=O)(=O)c2cc(Cl)c(N)c(Cl)c2)CC1 (configuration not stated),–,IC50 ([1]; read-out: IC50): 690 nM; IC50 [2]: > 20000 nM; IC50 [3]: 251 nM; IC50 [7]: 794 nM; IC50 [8]: 794 nM
CC1CCN(C(=O)C(CCn2cccc2C#N)NS(=O)(=O)c2ccccc2)CC1 (configuration not stated),1260,IC50 [2]: > 20000 nM
CC1CCN(C(=O)C(CCn2cccc2C#N)NS(=O)(=O)c2ccc3cc[nH]c3c2)CC1 (configuration not stated),7.94,IC50 [2]: 1000 nM
CC1CCN(C(=O)C(CCn2ccnn2)NS(=O)(=O)c2cc(Cl)c(N)c(Cl)c2)CC1 (configuration not stated),> 20000,–
CC1CCN(C(=O)[C@@H](CCn2cccc2C#N)NS(=O)(=O)c2cc(Cl)c(N)c(Cl)c2)CC1,7.94,–
CC1CCN(C(=O)[C@@H](CCc2ccccc2)NS(=O)(=O)c2cc(Cl)c(N)c(Cl)c2)CC1,631,IC50 [2]: 10000 nM
CC1CCCN(C(=O)C(CCn2cccc2C#N)NS(=O)(=O)c2cc(Cl)c(N)c(Cl)c2)C1 (configuration not stated),631,–
N#Cc1cccn1CCC(NS(=O)(=O)c1cc(Cl)c(N)c(Cl)c1)C(=O)N1CCC(C(F)(F)F)CC1 (configuration not stated),398,–
N#Cc1cccn1CCC(NS(=O)(=O)c1cc(Cl)c(N)c(Cl)c1)C(=O)N1CCCCCC1 (configuration not stated),251,–
CC1CCN(C(=O)[C@H](CCn2ccnc2[N+](=O)[O-])NS(=O)(=O)c2cc(Cl)c(N)c(Cl)c2)CC1,> 20000,–
CC1CCN(C(=O)[C@@H](CCn2ccnc2[N+](=O)[O-])NS(=O)(=O)c2cc(Cl)c(N)c(Cl)c2)CC1,501,–
N#Cc1cccn1CCC(NS(=O)(=O)c1cc(Cl)c(N)c(Cl)c1)C(=O)N1CCCCC1 (configuration not stated),158,–
CC1CCN(C(=O)C(CCn2nccc2C#N)NS(=O)(=O)c2cc(Cl)c(N)c(Cl)c2)CC1 (configuration not stated),63.1,IC50 [2]: 3160 nM
CC1CCN(C(=O)C(CCn2cccc2)NS(=O)(=O)c2cc(Cl)c(N)c(Cl)c2)CC1 (configuration not stated),1260,–
CC1CCN(C(=O)C(CCc2ccccc2Cl)NS(=O)(=O)c2cc(Cl)c(N)c(Cl)c2)CC1 (configuration not stated),126,–
